{"source": "patent US10697027B2", "about": "“Biological detection method for dioxins in serum, and diagnostic use therefor in metabolic syndrome and related conditions” (priority 2010, dated 2020)", "key": {"[1]": {"test_system": "HePa1c1c7 cell line expressing pCYP1A1-luc stably", "experiment": "Response test with the transformed cell line expressing the recombinant reporter gene (luciferase assay)", "format": "cell-based, mouse", "settings": "for luciferase activity over the treatment time: treatment time 4, 8 (or 24) hours", "procedure": "The cell line stably expressing pCYP1A1-luc constructed in Example <1-2> was distributed in 60 mm culture dish at the density of 1×10^5 cells, followed by culture for 48 hours. Upon completion of the culture, the medium was replaced with DMEM supplemented with 0.5% charcoal-stripped FBS but not supplemented with phenol red, and indole-3-carbinol was treated thereto at the concentrations of 0, 0.01, 0.1, 1, 10, and 100 μM for 4, 8, or 24 hours. Then, the cells were collected, followed by luciferase assay.\nThe cell line stably expressing pCYP1A1-luc constructed in Example <1-2> was distributed in 60 mm culture dish at the density of 2×10^5 cells, followed by culture for 24 hours. Upon completion of the culture, the medium was replaced with DMEM supplemented with 0.5% charcoal-stipped FBS but not supplemented with phenol red, and 2,3,7,8-tetrachlorodibenzo-p-dioxin (TCDD) was treated thereto at the concentrations of 0, 0.1, 1, 10, 100, and 1000 pM for 4, or 8 hours. Then, the cells were collected, followed by luciferase assay."}, "[2]": {"settings": "mouse treated with TCDD; cited from earlier work"}}, "data": [{"smiles": "Clc1cc2c(cc1Cl)Oc1cc(Cl)c(Cl)cc1O2", "note": "[TCDD, 2,3,7,8-tetrachlorodibenzo-p-dioxin]", "values": [{"measurement": "luciferase activity compared with control not treated with TCDD", "setting": "[1]; 10~1000 pM, treated for 4 or 8 hours", "value": "significantly increased"}, {"measurement": "luciferase activity over the treatment time", "setting": "[1]", "value": "increased over the treatment time, which was not so significant"}, {"measurement": "ATP synthesis", "setting": "[2]", "value": "suppressed"}, {"measurement": "ubiquinone (CoQ) in the liver", "setting": "[2]", "value": "reduced"}]}, {"smiles": "OCc1c[nH]c2ccccc12", "note": "[indol-3-carbinol, indole-3-carbinol]", "values": [{"measurement": "luciferase activity compared with non-treated control group", "setting": "[1]; 0.001~10 μM, treated for 4, 8 or 24 hours", "value": "increased dose-dependently"}, {"measurement": "luciferase activity increase", "setting": "[1]; concentration of 100 μM, treated for 4, 8 or 24 hours", "value": "at least 3 times"}, {"measurement": "luciferase activity over the treatment time", "setting": "[1]", "value": "significant difference over the time was not detected"}]}]}
